Structures are written as SMILES. Read-outs that look alike come from different tables or passages of the source.

For this experiment, the target named is T1, partially purified rat brain famesyl protein transferase (FPT) (Rattus norvegicus, UniProt Q02293+Q04631).
T1 construct: partially purified rat brain famesyl protein transferase (FPT); from tissue; host or cells: rat brain
In words: In vitro enzyme assay: inhibition of Ras-CVLS farnesylation by farnesyl protein transferase (FPT). It counts as biochemical. On the procedure: • 1. In vitro enzyme assays: FPT IC50 (inhibition of famesyl protein transferase, in vitro enzyme assay) are determined by the methods disclosed in […] or WO 95/10516. […] Cell-based assay. COS IC50 values refer to the COS cells activity inhibition of Ras processing, are determined by the methods disclosed in […] or WO 95/10516.

T1 sequence (Q02293 whole entry, one chain of several): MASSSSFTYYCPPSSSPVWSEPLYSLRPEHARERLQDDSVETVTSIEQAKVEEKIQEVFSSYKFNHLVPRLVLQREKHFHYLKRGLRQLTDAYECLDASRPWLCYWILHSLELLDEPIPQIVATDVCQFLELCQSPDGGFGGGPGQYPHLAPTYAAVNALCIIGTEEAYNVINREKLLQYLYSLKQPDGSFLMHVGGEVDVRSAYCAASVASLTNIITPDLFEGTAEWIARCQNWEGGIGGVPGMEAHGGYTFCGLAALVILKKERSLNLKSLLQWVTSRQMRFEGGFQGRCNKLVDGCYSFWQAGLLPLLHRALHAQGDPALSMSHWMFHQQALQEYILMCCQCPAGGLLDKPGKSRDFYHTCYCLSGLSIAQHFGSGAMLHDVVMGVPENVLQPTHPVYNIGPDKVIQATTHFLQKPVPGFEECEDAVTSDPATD

By inhibition is commonly meant the percentage by which the read-out fell short of the control. Turning to `O=C(NCCc1ccccn1)C1CCN(C2c3ccc(Cl)cc3CCc3cc(Br)cnc32)CC1` (racemic) [Example 6, 1-(3-Bromo-8-chloro-6,11-dihydro-5H-benzo[5,6]cyclohepta[1,2-b]pyridin-11-yl)-N-(2-pyridiriylethyl)-4-piperidinecarboxamide], the inhibition at 1.1 µM (read-out: FPT Inhibition) turned out to be 9%.

Where the note is “@ 0.36 µM”, `NC(=O)N1CCC(NC(=O)C2CCN(C3c4ccc(Cl)cc4CCc4cc(Br)cnc43)CC2)CC1` (racemic) [Example 7, 1-(3-Bromo-8-chloro-6,11-dihydro-5H-benzo[5,6]cyclohepta[1,2-b]pyridin-11-yl)-N-[4-(N-carboxamidopiperidinyl)]-4-piperidinecarboxamide] came in with an inhibition at 0.36 µM of 15%.

Compound `NC(=O)N1CCC(CNC(=O)C2CCN(C3c4ccc(Cl)cc4CCc4cc(Br)cnc43)CC2)CC1` (racemic) [Example 8, 1-(3-Bromo-8-chloro-6,11-dihydro-5H-benzo[5,6]cyclohepta[1,2-b]pyridin-11-yl)-N-[4-(N-carboxamidopiperidinyl)methyl]-4-piperidinecarboxamide] registered an inhibition at 1.04 µM (@ 1.04 µM) of 41%.

Consider `NCC1CCN(C(=O)C2CCN(C3c4ccc(Cl)cc4CCc4cc(Br)cnc43)CC2)CC1` (racemic) [Example 9 Step B], for which the inhibition at 0.38 µM (@ 0.38 µM, read-out: FPT Inhibition) is 16%.

For the compound `O=C(NCc1cccnc1)C1CCCN(C2c3ccc(Cl)cc3CCc3cc(Br)cnc32)C1` (single isomer, unassigned) [Example 10 Isomer A, 1-(3-Bromo-8-chloro-6,11-dihydro-5H-benzo[5,6]cyclohepta[1,2-b]pyridin-11-yl)-N-(3-pyridinylmethyl)-3-piperidinecarboxamide], where the note is “read-out: FPT Inhibition”, the inhibition at 1.14 µM came out at 6.1%.

As a reminder, the IC50 is the concentration at which inhibition is half-maximal. For `O=C(NCc1cccnc1)C1CCCN(C2c3ccc(Cl)cc3CCc3cc(Br)cnc32)C1` (single isomer, unassigned) [Example 10 Isomer B, 1-(3-Bromo-8-chloro-6,11-dihydro-5H-benzo[5,6]cyclohepta[1,2-b]pyridin-11-yl)-N-(3-pyridinylmethyl)-3-piperidinecarboxamide], 0.194 µM corresponded to half-maximal inhibition (IC50).

The compound `O=C(NCc1cccnc1)C1CCCN(C2c3ccc(Cl)cc3CCc3cc(Br)cnc32)C1` (single isomer, unassigned) [Example 10 Isomer C, 1-(3-Bromo-8-chloro-6,11-dihydro-5H-benzo[5,6]cyclohepta[1,2-b]pyridin-11-yl)-N-(3-pyridinylmethyl)-3-piperidinecarboxamide] had an IC50 of 0.179 µM.

Consider `O=C(NCc1cccnc1)C1CCCN(C2c3ccc(Cl)cc3CCc3cc(Br)cnc32)C1` (single isomer, unassigned) [Example 10 Isomer D, 1-(3-Bromo-8-chloro-6,11-dihydro-5H-benzo[5,6]cyclohepta[1,2-b]pyridin-11-yl)-N-(3-pyridinylmethyl)-3-piperidinecarboxamide], for which the IC50 was 0.187 µM.

Turning to `O=C(NCc1ccncc1)[C@@H]1CCCCN1C1c2ccc(Cl)cc2CCc2cc(Br)cnc21` (single isomer, unassigned) [Example 12, 1-(3-Bromo-8-chloro-6,11-dihydro-5H-benzo[5,6]cyclohepta[1,2-b]pyridin-11-yl)-N-(4-pyridinylmethyl)-2S-piperidinecarboxamide], where the note is “@ 1.1 µM, read-out: FPT Inhibition”, the inhibition at 1.1 µM is 18%.

On to `O=C(NCc1ccncc1)[C@@H]1CCCCN1C1c2ccc(Cl)cc2CCc2cc(Br)cnc21` (single isomer, unassigned) [Example 13, 1-(3-Bromo-8-chloro-6,11-dihydro-5H-benzo[5,6]cyclohepta[1,2-b]pyridin-11-yl)-N-(4-pyridinylmethyl)-2S-piperidinecarboxamide], for which the “FPT Inhibition” value (@ 1.1 µM) was 21%.

Compound `O=C(NCc1cccnc1)C1CCCN(C2c3ncc(Br)cc3CCc3cc(Cl)cc(Br)c32)C1` (single isomer, unassigned) [Example 17 Isomer A, 1-(3,10-Dibromo-8-chloro-6,11-dihydro-5H-benzo[5,6]cyclohepta[1,2-b]pyridin-11-yl)-N-(3-pyridinylmethyl)-3-piperidinecarboxamide] showed an IC50 below 0.0099 µM.

For the compound `O=C(NCc1cccnc1)C1CCCN(C2c3ncc(Br)cc3CCc3cc(Cl)cc(Br)c32)C1` (single isomer, unassigned) [Example 17 Isomer B, 1-(3,10-Dibromo-8-chloro-6,11-dihydro-5H-benzo[5,6]cyclohepta[1,2-b]pyridin-11-yl)-N-(3-pyridinylmethyl)-3-piperidinecarboxamide], the inhibition at 0.1 µM (read-out: FPT Inhibition) was determined as 3.4%.

With `O=C(NCc1ccc[n+]([O-])c1)[C@@H]1CCCN(C2c3ncc(Br)cc3CCc3cc(Cl)cc(Br)c32)C1` (single isomer, unassigned) [Example 51, 1-(3,10-Dibromo-8-chioro-6,11-dihydro-5H-benzo[5,6]cyclohepta[1,2-b]pyridin-11-yl)-N-(3-pyridinylmethyl)-3-piperidinecarboxamide N1-oxide], for the setting “unit printed as uM (Examples 49-54)”, inhibition was half-maximal at 0.1 µM (IC50).

As to `O=C(NCc1ccncc1)[C@H]1CCCCN1C1c2ccc(Cl)cc2CCc2cc(Br)cnc21` (single isomer, unassigned) [Isomer A2 amide], the “FPT Inhibition” value (@ 1.1 µM) is on record as “FPT Inhibition = 0% @ 1.1 µM”.

`O=C(NCc1ccncc1)[C@H]1CCCCN1C1c2ccc(Cl)cc2CCc2cc(Br)cnc21` (single isomer, unassigned) [Isomer B2 amide]: the “FPT Inhibition” value (@ 1.1 µM) was “FPT Inhibition = 13% @ 1.1 µM”.

With `O=C(NCc1cccnc1)C1CCCCN1C1c2ccc(Cl)cc2CCc2cc(Br)cnc21` (single isomer, unassigned) [Isomer C1 amide], the IC50 was determined as 0.3 µM.

For `O=C(NCc1cccnc1)[C@H]1CCCCN1C1c2ccc(Cl)cc2CCc2cc(Br)cnc21` (single isomer, unassigned) [Isomer C2 amide], for the setting “@ 0.38 µM”, the “FPT Inhibition” value is given as “FPT Inhibition =11% @ 0.38 µM”.

`O=C(NCc1cccnc1)C1CCCCN1C1c2ccc(Cl)cc2CCc2cc(Br)cnc21` (single isomer, unassigned) [Isomer D1 amide] gave an IC50 of 0.16 µM.

In the case of `O=C(NCc1cccnc1)[C@H]1CCCCN1C1c2ccc(Cl)cc2CCc2cc(Br)cnc21` (single isomer, unassigned) [Isomer D2 amide], the “FPT Inhibition” value (@ 0.38 µM) is recorded as “FPT Inhibition = 0% @ 0.38 µM”.

Consider `O=C(Nc1ccncc1)C1CCN(C2c3ccc(Cl)cc3CCc3cccnc32)CC1` (centres unmarked) [Example 1, 1-[8-Chloro-6,11-dihydro-5H-benzo[5,6]cyclohepta[1,2-b]pyridin-11-yl]-N-(4-pyridinyl)-4-piperidinecarboxamide], for which the IC50 worked out at 9.24 µM.

With `O=C(Nc1ccncc1)C1CCN(C2c3ccc(Cl)cc3CCc3cc(Br)cnc32)CC1` (centres unmarked) [Example 2, 1-(3-Bromo-8-chloro-6,11-dihydro-5H-benzo[5,6]cyclohepta[1,2-b]pyridin-11-yl)-N-(4-pyridinyl)-4-piperidinecarboxamide], for the setting “read-out: FPT Inhibition”, the inhibition at 0.39 µM was determined as 0%.

Regarding `O=C(NCc1ccncc1)C1CCN(C2c3ccc(Cl)cc3CCc3cc(Br)cnc32)CC1` (centres unmarked) [Example 3, 1-(3-Bromo-8-chloro-6,11-dihydro-5H-benzo[5,6]cyclohepta[1,2-b]pyridin-11-yl)-N-(4-pyridinylmethyl)-4-piperidinecarboxamide], the inhibition at 1.1 µM (read-out: FPT Inhibition) was 21%.

With `O=C(NCc1cccnc1)C1CCN(C2c3ccc(Cl)cc3CCc3cc(Br)cnc32)CC1` (centres unmarked) [Example 4, 1-(3-Bromo-8-chloro-6,11-dihydro-5H-benzo[5,6]cyclohepta[1,2-b]pyridin-11-yl)-N-(3-pyridinylmethyl)-4-piperidinecarboxamide], the IC50 was found to be 1.3 µM.

Source of the values: patent EP0931078B1, “NOVEL TRICYCLIC PIPERIDINYL COMPOUNDS USEFUL AS INHIBITORS OF FARNESYL-PROTEIN TRANSFERASE” (SCHERING CORPORATION, priority 1996, dated 1998).
